How the values were obtained:
CHO cells = assay: ApoTox-Glo cell viability, cytotoxicity and apoptosis signaling assay; format: cell-based, Chinese hamster
Method: Cell viability, cytotoxicity and apoptosis signaling assays were performed in a 96-well plate using ApoTox-Glo reagent (Promega) according to the manufacturer's instructions.

[1] = molecular target: T1, full length human OGT (ncOGT) (Homo sapiens, UniProt O15294); assay: UDP-Glo luminescence-based coupled enzyme assay; format: biochemical
T1 construct: made in house
T1 sequence (O15294 1-1046): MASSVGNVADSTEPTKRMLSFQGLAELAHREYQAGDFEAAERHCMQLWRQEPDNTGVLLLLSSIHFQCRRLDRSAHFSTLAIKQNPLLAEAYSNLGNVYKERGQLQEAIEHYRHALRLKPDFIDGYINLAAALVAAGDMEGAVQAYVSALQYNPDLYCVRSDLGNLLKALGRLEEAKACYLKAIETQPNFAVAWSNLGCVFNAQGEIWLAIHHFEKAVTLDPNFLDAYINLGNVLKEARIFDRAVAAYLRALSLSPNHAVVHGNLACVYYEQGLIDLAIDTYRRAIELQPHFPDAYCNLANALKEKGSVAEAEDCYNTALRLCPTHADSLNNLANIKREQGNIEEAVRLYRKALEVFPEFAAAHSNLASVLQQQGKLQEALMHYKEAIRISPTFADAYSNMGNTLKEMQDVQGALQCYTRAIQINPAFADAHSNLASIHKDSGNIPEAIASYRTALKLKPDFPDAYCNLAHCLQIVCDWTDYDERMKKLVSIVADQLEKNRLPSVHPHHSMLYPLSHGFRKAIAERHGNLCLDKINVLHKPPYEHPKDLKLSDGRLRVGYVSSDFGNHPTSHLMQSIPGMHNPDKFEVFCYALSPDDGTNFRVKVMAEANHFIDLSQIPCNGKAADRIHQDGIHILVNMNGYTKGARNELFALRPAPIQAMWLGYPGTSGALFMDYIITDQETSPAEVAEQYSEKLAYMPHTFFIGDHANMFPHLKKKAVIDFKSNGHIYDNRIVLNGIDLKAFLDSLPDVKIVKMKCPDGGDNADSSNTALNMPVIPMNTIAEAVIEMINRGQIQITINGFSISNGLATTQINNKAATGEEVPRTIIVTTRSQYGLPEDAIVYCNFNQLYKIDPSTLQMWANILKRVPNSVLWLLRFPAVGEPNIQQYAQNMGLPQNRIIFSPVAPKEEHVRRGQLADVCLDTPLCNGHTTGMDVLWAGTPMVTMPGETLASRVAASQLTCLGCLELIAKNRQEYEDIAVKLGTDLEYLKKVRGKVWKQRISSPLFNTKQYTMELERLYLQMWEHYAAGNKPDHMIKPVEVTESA
Method: UDP-Glo assay: Materials for this assay were obtained from Promega (catalog #V6961), and the experiment was performed largely as outlined by the manufacturer. IC50 values were determined in the range of 0 to 100 μM (eleven concentration points). Assays were performed either in white, 96-well or ½-volume 96-well, plates. This assay was run with 125 μM CKII3K peptide acceptor. Reaction volumes were between 14 (half volume plates) and 20 (normal volume plates) μL. Reactions contained the following components: 300 nM ncOGT, 125 μM CKII3K and 40 μM UDP-GlcNAc in 1× PBS pH 7.4 supplemented with 1 mM THP. Reactions were incubated for one hour at 25° C. and quenched by the addition of an equal volume of UDP-Glo nucleotide detection reagent, prepared and used according to manufacturer guidelines. The quenched reactions were then mixed briefly by shaking at 1800 rpm in a Thermomixer C, and incubated for one hour at room temperature prior to reading luminescence, as per the manufacturers guidelines. Data were analyzed by Microsoft Excel and Prism 6 (Graphpad). When evaluating the effect of sugar donor concentration, this parameter was varied, while all other conditions remained as described above. Each sample in this case was run in duplicate, unless otherwise specified. The 40 μM curve in FIG. 16C has each point in quadruplicate. Similarly, there is an n=9 for each point in the OSMI-1 curve in FIG. 16B.

OGT in CHO cells [2] = assay: Markers of OGT inhibition in CHO cells (Nup62 mass shift, OGA levels, H2B-S112 O-GlcNAc); format: cell-based, Chinese hamster
Method: (§1) In vivo inhibition of glycosylation: For all immunoblotting experiments, CHO-K1 (CHO) cells were grown in F12-K media supplemented with 10% FBS and antibiotics at 37° C. in a 5% CO2 incubator. Cells were treated by adding indicated inhibitor in DMSO vehicle (0.5% final vehicle concentration) upon reaching 70% confluence. After indicated treatment length, cells were harvested by aspirating growth media and washing with ice cold 1× PBS. Cells were subsequently lysed in boiling 1% SDS/20 mM HEPES 7.9. After cooling to room temperature, 1 mM PMSF, 10 μM PUGNAC, 10 μM TMG and 1× Complete protease inhibitor cocktail were added to the solution. The mixture was sonicated and then subjected to a 5 minute incubation at 95° C. The samples were centrifuged for 15 minutes at 20,000×g and the supernatant was collected and the total protein was measured by BCA assay (BIO-RAD).
(§2) The sample was separated by SDS-PAGE (Bio-Rad 4-15%, Cat: 345-0028), transferred to a nitrocellulose membrane (iBlot, Invitrogen) and probed with the indicated antibody. Tyipcally, membranes were blocked with 4% BSA in 1× TBS+0.04% tween-20 for 1 hour before incubating with antibody (typically diluted 1:1000 in 4% BSA inlx TBS+0.04% tween-20) overnight at 4° C. Membranes were then washed three times with 1× TBS+0.04% tween-20 and incubated with secondary antibody (typically diluted 1:5000 in 4% BSA in 1× TBS+0.04% tween-20) for 1 hour at room temperature. Lastly, membranes were washed 3× with 1× TBS+0.04% tween-20 and imaged with ECL. D283-Med cells were treated as above but grown in F12-K media supplemented with 10% FBS and antibiotics. HEK, HeLa and LNCaP cells were treated as above but grown in RPMI media supplemented with 10% FBS and antibiotics.

Aqueous solubility = format: physicochemical
[3] = tested on: cell surface glycans of CHO cells; assay: Lectin blots of cell surface glycans of CHO cells; format: cell-based, Chinese hamster; settings: 50 μM, 24 hours
Method: Lectin blots were performed with the CHO-K1 cell lysate as prepared above. […] The biotin label on the lectins was visualized with incubation with Streptavidin-HRP (Pierce) followed by ECL detection and imaging.

OGT in CHO cells [4] = assay: Immunoblotting of global O-GlcNAcylation (RL2) in CHO cells; format: cell-based, Chinese hamster
Method: as §1, §2

IC50 ([1]; 40 μM UDP-GlcNAc, 125 μM CKII3K peptide, read-out: IC50 against ncOGT, coupled enzyme assay): 2700 nM | Mode of inhibition with respect to UDP-GlcNAc ([1]; various UDP-GlcNAc concentrations): did not act competitively | Aqueous solubility (Aqueous solubility): limited aqueous solubility
SMILES: COc1ccccc1[C@@H](NS(=O)(=O)c1ccc2[nH]c(=O)ccc2c1)C(=O)N(Cc1ccco1)Cc1cccs1 [OSMI-1, (R)—N-(furan-2-ylmethyl)-2-(2-methoxyphenyl)-2-(2-oxo-1,2-dihydroquinoline-6-sulfonamido)-N-(thiophen-2-ylmethyl)acetamide]
Cytotoxicity (CHO cells; 50 μM): not cytotoxic | Decrease of cell viability (CHO cells; 50 μM, 24 hours): about 50% | Apoptotic signaling (CHO cells; up to 50 μM): does not trigger apoptotic signaling | Cellular OGA levels (OGT in CHO cells [2]): reduced cellular OGA | Nup62 mass shift (OGT in CHO cells [2]): shift to a lower molecular weight | O-GlcNAc modification of histone H2B-S112 (OGT in CHO cells [2]): greatly reduced | Changes in bands detected by ConA, PHA-L, ECL, GSL-I, PNA or DBA [3]: minimal changes | Onset of reduction of global O-GlcNAcylation (OGT in CHO cells [4]; 50 μM, 8-hour time course): within two hours | Concentration of maximal reduction of global O-GlcNAcylation (OGT in CHO cells [4]; 24 hr, 10-100 μM tested): 50 µM

Reference: patent US20170166558A1, “O-GLCNAC TRANSFERASE (OGT) INHIBITORS AND USES THEREOF” (President and Fellows of Harvard College, priority 2014, published 2017)
